# Reference: the supplement of paper PMC9663587
# Compound: CN(C)C/C=C/C(=O)NC1=CC=C(C=C1)C(=O)NC2=CC=CC(=C2)NC3=NC=NC(=C3)C4=CNC5=CC=CC=C54 [THZ-P1-2]
# 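Note: breast cancer and non-malignant breast epithelial cell lines, Deep Dye Drop or Dye Drop imaging, nine half-log doses, GR normalized to time-zero plates and DMSO-only controls.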
row,Cell Line,"GR50, 72 h [µM]"
1,184A1,1.72
2,AU565,5.22
3,BT20,6.01
4,BT474,5.82
5,BT549,7.26
6,CAL51,> 10
7,CAL120,6.25
8,CAMA1,3.39
9,HCC1569,4.75
10,MCF10A (GM),7.51
11,MGH312,4.45
12,PDX1206,> 10
13,SUM44PE,0.196
14,SUM149,6.14
15,ZR7530,1.64

# Compound: COc1cc2c(Oc3ccc4[nH]c(C)cc4c3F)ncnc2cc1OCCCN1CCCC1 [Cediranib/AZD2171]
row,Cell Line,"GR50, 72 h [µM]"
1,184A1,7.6
2,AU565,> 10
3,BT20,5.69
4,BT474,> 10
5,BT549,3.64
6,CAL51,3.05
7,CAL120,1.04
8,CAMA1,5.02
9,HCC1569,> 10
10,MGH312,3.88
11,SUM44PE,9.59
12,SUM149,5.18
13,ZR7530,7.57

# Compound: C1=CC(=CC(=C1)N2C(=O)C=CC3=CN=C4C=CC(=CC4=C32)C5=CN=C(C=C5)N)C(F)(F)F [Torin2]
row,Cell Line,"GR50, 72 h [µM]"
1,184A1,0.0106
2,AU565,0.00547
3,BT20,0.0089
4,BT474,0.00998
5,BT549,0.00951
6,CAL51,0.0179
7,CAL120,0.0105
8,CAMA1,0.00918
9,HCC1569,0.0105
10,MGH312,0.00596
11,SUM44PE,0.00502
12,SUM149,0.142
13,ZR7530,0.0216

# Compound: C1=CC2=C(C=CC(=C2)C=C3C(=O)NC(=NCC4=CC=CS4)S3)N=C1 [R0-3306]
row,Cell Line,"GR50, 72 h [µM]"
1,184A1,2.78
2,AU565,0.478
3,BT20,5.2
4,BT474,3.53
5,BT549,5.42
6,CAL51,8.06
7,CAL120,8.5
8,CAMA1,4.36
9,HCC1569,4.54
10,MCF10A (GM),6.32
11,MGH312,5.42
12,PDX1206,3.6
13,SUM44PE,1.91
14,SUM149,4.86
15,ZR7530,6.17

# Compound: CC(=O)O[C@H]1C(=O)[C@@]2(C)[C@H]([C@H](OC(=O)c3ccccc3)[C@]3(O)C[C@H](OC(=O)[C@H](O)[C@@H](NC(=O)c4ccccc4)c4ccccc4)C(C)=C1C3(C)C)[C@]1(OC(C)=O)CO[C@@H]1C[C@@H]2O [Paclitaxel]
row,Cell Line,"GR50, 72 h [µM]"
1,184A1,0.00313
2,AU565,0.00163
3,BT20,0.00202
4,BT474,0.00412
5,BT549,0.00272
6,CAL51,0.00417
7,CAL120,0.00288
8,CAMA1,0.00227
9,HCC1569,0.00208
10,MGH312,0.00266
11,SUM44PE,0.00153
12,SUM149,0.00159
13,ZR7530,0.00474

# Compound: CN(C)C/C=C/C(=O)Nc1ccc(C(=O)N2CCC[C@@H](Nc3ncc(Cl)c(-c4c[nH]c5ccccc45)n3)C2)cc1 [THZ531]
row,Cell Line,"GR50, 72 h [µM]"
1,184A1,0.269
2,AU565,0.055
3,BT20,> 1
4,BT474,0.0537
5,BT549,0.302
6,CAL51,> 1
7,CAL120,0.15
8,CAMA1,0.139
9,HCC1569,0.0461
10,MCF10A (GM),0.428
11,MGH312,0.0332
12,PDX1206,0.0456
13,SUM44PE,0.0499
14,SUM149,0.345
15,ZR7530,0.0583

# Compound: CCNC(=O)c1noc(-c2cc(C(C)C)c(O)cc2O)c1-c1ccc(CN2CCOCC2)cc1 [Luminespib/NVP-AUY922]
row,Cell Line,"GR50, 72 h [µM]"
1,184A1,0.00549
2,AU565,0.00456
3,BT20,0.00597
4,BT474,0.00444
5,BT549,0.00539
6,CAL51,0.00639
7,CAL120,0.00281
8,CAMA1,0.00885
9,HCC1569,0.0107
10,MGH312,0.00379
11,SUM44PE,0.00453
12,SUM149,0.00516
13,ZR7530,0.00303

# Compound: CCCCOc1c(C(=O)c2c(F)cc(C)cc2F)c[nH]c2nncc1-2
row,Cell Line,"GR50, 72 h [µM]"
1,184A1,< 0.001
2,AU565,0.142
3,BT20,0.002
4,BT474,> 10
5,BT549,0.00106
6,CAL51,3.95
7,CAL120,2.2
8,CAMA1,< 0.001
9,HCC1569,0.0109
10,MCF10A (GM),0.355
11,MGH312,0.00785
12,PDX1206,0.00176
13,SUM44PE,< 0.001
14,SUM149,0.0163
15,ZR7530,0.152

# Compound: Cc1nn(C)c(COc2ccc(N3CCN(S(=O)(=O)N(C)C)CC3)cc2)c1-c1cccc2c(CCCOc3cccc4ccccc34)c(C(=O)O)n(CCN3CCOCC3)c12
row,Cell Line,"GR50, 72 h [µM]"
1,184A1,3.65
2,AU565,> 10
3,BT20,> 10
4,BT474,> 10
5,BT549,> 10
6,CAL51,> 10
7,CAL120,> 10
8,CAMA1,> 10
9,HCC1569,> 10
10,MGH312,> 10
11,SUM44PE,3.31
12,SUM149,5.97
13,ZR7530,> 10

# Compound: CC(=O)Nc1cccc(-n2c(=O)n(C3CC3)c(=O)c3c(Nc4ccc(I)cc4F)n(C)c(=O)c(C)c32)c1
row,Cell Line,"GR50, 72 h [µM]"
1,184A1,0.00069
2,AU565,> 1
3,BT20,> 1
4,BT474,> 1
5,BT549,> 1
6,CAL51,> 1
7,CAL120,0.0468
8,CAMA1,> 1
9,HCC1569,> 1
10,MGH312,> 1
11,SUM44PE,> 1
12,SUM149,0.0112
13,ZR7530,0.0361

# Compound: CCN1CCN(Cc2ccc(Nc3ncc(F)c(-c4cc(F)c5nc(C)n(C(C)C)c5c4)n3)nc2)CC1
row,Cell Line,"GR50, 72 h [µM]"
1,184A1,0.0256
2,AU565,0.0308
3,BT20,0.0613
4,BT549,3.97
5,CAL51,0.113
6,CAL120,0.247
7,CAMA1,0.00786
8,HCC1569,4.64
9,MGH312,2.43
10,SUM44PE,0.0473
11,SUM149,0.594
12,ZR7530,0.00886

# Compound: C=CCn1c(=O)c2cnc(Nc3ccc(N4CCN(C)CC4)cc3)nc2n1-c1cccc(C(C)(C)O)n1 [AZD1775]
row,Cell Line,"GR50, 72 h [µM]"
1,184A1,0.674
2,AU565,0.216
3,BT20,1.9
4,BT474,0.621
5,BT549,0.318
6,CAL51,0.274
7,CAL120,0.197
8,CAMA1,5.45
9,HCC1569,0.00634
10,MCF10A (GM),5.15
11,MGH312,1.27
12,PDX1206,0.313
13,SUM44PE,0.237
14,SUM149,0.0722
15,ZR7530,1.91

# Compound: CN(C)C(=O)c1cc2cnc(Nc3ccc(N4CCNCC4)cn3)nc2n1C1CCCC1 [LEE011/Ribociclib]
row,Cell Line,"GR50, 72 h [µM]"
1,184A1,0.285
2,AU565,0.663
3,BT20,0.359
4,BT474,> 10
5,BT549,> 10
6,CAL51,3.72
7,CAL120,> 10
8,CAMA1,0.0104
9,HCC1569,> 10
10,MCF10A (GM),> 10
11,MGH312,> 10
12,PDX1206,> 10
13,SUM44PE,2.54
14,SUM149,> 10
15,ZR7530,0.692

# Compound: CNC(=O)c1cccc(-c2ccc3c(N4CCOC[C@@H]4C)nc(N4CCOC[C@@H]4C)nc3n2)c1 [AZD2014]
row,Cell Line,"GR50, 72 h [µM]"
1,184A1,0.00164
2,AU565,0.00361
3,BT20,0.146
4,BT474,< 0.001
5,BT549,0.157
6,CAL51,0.163
7,CAL120,0.184
8,CAMA1,< 0.001
9,MCF10A (GM),0.034
10,MGH312,< 0.001
11,PDX1206,< 0.001
12,SUM44PE,0.00197
13,SUM149,1.92
14,ZR7530,0.00146

# Compound: Cc1nc(NC(=O)N2CCC[C@H]2C(N)=O)sc1-c1ccnc(C(C)(C)C(F)(F)F)c1 [Alpelisib/BYL719]
row,Cell Line,"GR50, 72 h [µM]"
1,184A1,7.72
2,AU565,0.27
3,BT20,2.03
4,BT474,0.309
5,BT549,> 10
6,CAL51,6.1
7,CAL120,> 10
8,CAMA1,> 10
9,HCC1569,5.28
10,MGH312,6.6
11,SUM44PE,0.65
12,SUM149,> 10
13,ZR7530,0.246

# Compound: CC(C)Nc1cc(-c2c[nH]c(C(=O)N[C@H](CO)c3cccc(Cl)c3)c2)c(Cl)cn1 [BVD523]
row,Cell Line,"GR50, 72 h [µM]"
1,184A1,0.00782
2,AU565,> 10
3,BT20,> 10
4,BT474,> 10
5,BT549,> 10
6,CAL51,> 10
7,CAL120,9.62
8,CAMA1,2.73
9,HCC1569,> 10
10,MCF10A (GM),1.51
11,MGH312,> 10
12,PDX1206,> 10
13,SUM44PE,2.7
14,SUM149,1.96
15,ZR7530,> 10

# Compound: Cc1nc(Nc2ncc(C(=O)Nc3c(C)cccc3Cl)s2)cc(N2CCN(CCO)CC2)n1 [Dasatinib]
row,Cell Line,"GR50, 72 h [µM]"
1,184A1,0.756
2,AU565,5.35
3,BT20,0.68
4,BT474,0.0392
5,BT549,0.592
6,CAL51,0.0581
7,CAL120,0.0496
